From patent publication US20060035940A1, “(S)-Amlodipine malate” (Sepracor Inc., priority 2004, published 2006)
Structures can show the parent of a compound that is named as a salt. Where two headings read alike, the source gives them in different places.

Legend:
[1] = Moisture balance (VTI SGA-100 sorption isotherm); type: physicochemical; details: equilibrated at 95% RH (sorption range 5% to 95% RH)
Procedure: Moisture-sorption data were collected on a VTI SGA-100 moisture balance system. […] The sample was not dried prior to analysis. Equilibrium criteria used for analysis were less than 0.0100 weight-percent change in 5 minutes with a maximum equilibration time of 3 hours if the weight criterion was not met. The data were not corrected for the initial moisture content of the sample.

Solid state stability = type: physicochemical; details: 60° C./75% RH
Procedure: Individual samples were prepared and stored at 25° C./60% RH and 40° C./75% RH. Samples stored at 60° C./75% RH were packaged in uncapped glass vials. All samples were analyzed for assay and impurity by HPLC.

[2] = type: physicochemical; details: for pH of saturated solution: DI H2O, ambient temperature
From the text: The solution was sampled periodically, filtered using a 0.2 μm PTFE syringe filter and assayed by HPLC.
The sample was filtered through a 0.2 μm filter and assayed by HPLC.

[3] = TGA, water content and moisture sorption profiles; type: physicochemical
Procedure: Moisture Sorption Isotherms: Moisture sorption isotherms were generated using VTI SGA-100 symmetric vapor sorption analyzer. Samples were not pre-dried. Equilibrium criteria were the lesser of 0.01 wt % change in 5 minutes or 180 minutes at each RH step. Temperature was fixed at 25° C. and the relative humidity steps (25% to 95% to 25%) were in 5% increments. In FIG. 27, adsorption data is shown as a solid line with desorption data connected by a dashed line. Water Content: Water content was determined by coulometric titration using an EM Science Aquastar® C300 Karl Fischer titrator. TGA: Samples were analyzed using Perkin Elmer TGA 7 thermal gravimetric analyzer at a heating rate of 10° C./min.

[4] = Adhesion studies (tablet punch surfaces, blends with Avicel PH 101); type: physicochemical
Procedure: Avicel PH 101 and each (S)-amlodipine salt were pre-screened through a 25-mesh sieve to delump the powders prior to blending. […] Approximately 500 mg was weighed into the ½-inch tablet die, a tablet punch was added and 0.2 metric tons of pressure was applied using a Carver press for 2-3 seconds. The tablet was then removed, and the surfaces of the tablet punches (concave, SRC) were washed with mobile phase (1 mL). The wash was then assayed by HPLC. Three measurements were made for each blend.

[5] = Hygroscopicity and desolvation studies of crystal forms (XRPD); type: physicochemical; details: 31, 75, 84 and 95% relative humidity, approximately one week
Procedure: Hygroscopicity studies were performed by placing portions of a select form in a 11, 32, 45, 66, 75, 84% or 95% relative humidity (RH) chamber for approximately one to three weeks. Desolvation studies were carried out by heating each form in an 80° C. oven for approximately one week. Interconversion experiments were carried out by making slurries containing two forms in a saturated solvent. The slurries were agitated for approximately seven days at ambient temperature. The insoluble solids were recovered by filtration and analyzed using XRPD.

[6] = 5% (S)-Amlodipine salt in Avicel
[7] = 25% (S)-Amlodipine salt in Avicel

CCOC(=O)C1=C(COCCN)NC(C)=C(C(=O)OC)C1c1ccccc1Cl.O=C(O)CC(O)C(=O)O [form D′, (S)-Amlodipine-D-malate]
increase in weight (moisture balance) [1]: 0.3%

(S)-amlodipine L-malate
time for which solid was fairly stable (Solid state stability): > 2 months
pH of saturated solution ([2]; initial salt screen): 4.0
pH of saturated solution ([2]; more recent sample): 3.56
Free Base Concentration (solubility) ([2]; pH 3.56): 6000 µg/mL
Malate Concentration (solubility) ([2]; pH 3.56): 8000 µg/mL
Free Base Concentration (solubility) ([2]; pH 4): 10100 µg/mL
Malate Concentration (solubility) ([2]; pH 4): 13400 µg/mL
Moisture Desorption ([3]; at 25% RH, 25° C.): 0.06 % wt remaining
Moisture Adsorption ([3]; at 95% RH, 25° C.): 0.24 % wt gain
KF water content ([3]; coulometric Karl Fischer): 0.13 % H2O
TGA ([3]; heating rate 10° C./min): 0.14 % wt loss
hygroscopicity ([3]; moisture sorption, TGA and Karl Fischer data): not hygroscopic
Adhesion [4, 6]: 4.9E−07 g (S)-amlodipine/cm^2
Adhesion [4, 7]: 2.6E−06 g (S)-amlodipine/cm^2
adhesion to solid dosage form manufacturing equipment compared to other salts ([4]; blended at typical levels with Avicel): decreased adhesion
increase in weight (moisture balance) [1]: 0.5%
crystal form after hygroscopicity study [5]: remained unchanged

CCOC(=O)C1=C(COCCN)NC(C)=C(C(=O)OC)[C@@H]1c1ccccc1Cl.O=C(O)C(O)C(O)C(=O)O [(S)-amlodipine D-tartrate]
Adhesion [4, 6]: 6.0E−07 g (S)-amlodipine/cm^2
Adhesion [4, 7]: 2.8E−06 g (S)-amlodipine/cm^2

CCOC(=O)C1=C(COCCN)NC(C)=C(C(=O)OC)[C@@H]1c1ccccc1Cl [(S)-amlodipine maleate]
Adhesion [4, 6]: 5.8E−07 g (S)-amlodipine/cm^2
Adhesion [4, 7]: 3.9E−06 g (S)-amlodipine/cm^2

O=C(O)[C@H](O)[C@@H](O)C(=O)O [(L)-Tartrate]
Adhesion [4, 6]: 9.3E−07 g (S)-amlodipine/cm^2
Adhesion [4, 7]: 4.9E−06 g (S)-amlodipine/cm^2
